From the NIST ThermoML archive (doi:10.1016/j.fluid.2009.03.002)

Columns and labels:
[1] = wn = mass fraction of the nth substance listed; conditions: 101 kPa, Liquid; for viscosity: Capillary tube (Ostwald / Ubbelohde) method; for mass density: Pycnometric method
[2] = relative permittivity at zero frequency (dimensionless); wn = mass fraction of the nth substance listed; conditions: 101 kPa, Liquid, Parallel plate capacitor
[3] = cn = amount concentration of the nth substance listed, in mol/dm3; conditions: 101 kPa, Liquid, Direct current cell with electrodes

OCCO [1,2-ethanediol] + CO
Conditions	mass density, 293.15 K [kg/m3]	mass density, 298.15 K [kg/m3]	mass density, 303.15 K [kg/m3]	relative permittivity at zero frequency, 293.15 K	relative permittivity at zero frequency, 298.15 K	relative permittivity at zero frequency, 303.15 K	viscosity, 293.15 K [mPa·s]	viscosity, 298.15 K [mPa·s]	viscosity, 303.15 K [mPa·s]
[1], w1 = 0.25	864.7	860.9	858.6	–	–	–	1.127	1.03	0.9454
[1], w1 = 0.5	938.3	933.8	932.1	–	–	–	2.269	2.045	1.81
[1], w1 = 0.75	1023.4	1019.6	1017.3	–	–	–	5.8	4.904	4.232
[2], w1 = 0.25	–	–	–	35.2	34.7	33.7	–	–	–
[2], w1 = 0.5	–	–	–	37.3	36.7	35.6	–	–	–
[2], w1 = 0.75	–	–	–	39.3	38.7	37.4	–	–	–

CO [methanol] + OCCO
w2 = 0
Conditions	mass density, 293.15 K [kg/m3]	mass density, 298.15 K [kg/m3]	mass density, 303.15 K [kg/m3]	relative permittivity at zero frequency, 293.15 K	relative permittivity at zero frequency, 298.15 K	relative permittivity at zero frequency, 303.15 K	viscosity, 293.15 K [mPa·s]	viscosity, 298.15 K [mPa·s]	viscosity, 303.15 K [mPa·s]
[1]	791	785.9	781.4	–	–	–	0.5814	0.5436	0.5112
[2]	–	–	–	33.1	32.7	31.9	–	–	–

CC(=O)[O-].[Na+] [sodium ethanoate] + CO
molar conductivity [S·m2/mol], [3]
Conditions	293.15 K	298.15 K	303.15 K
c1 = 0.0007037	0.007613	0.00835	0.00893
c1 = 0.00101	0.007497	0.00824	0.00857
c1 = 0.00129	–	0.008107	–
c1 = 0.001548	0.007306	–	0.00804
c1 = 0.001786	0.007275	0.007949	0.00786
c1 = 0.002007	–	0.007893	0.0078
c1 = 0.002402	0.007159	0.007788	0.00754
c1 = 0.00258	0.007131	0.007732	0.0074
c1 = 0.003188	0.006994	0.007579	0.00714
c1 = 0.003441	0.006947	0.007529	0.00696
c1 = 0.003667	0.006913	0.007475	0.00692
c1 = 0.004222	0.006825	0.007371	0.0068
c1 = 0.004764	0.006759	0.007263	–
c1 = 0.004874	–	–	0.00643
c1 = 0.004976	0.006732	0.007194	–
c1 = 0.005072	–	–	0.00634
c1 = 0.005529	–	0.007125	–
c1 = 0.005591	0.006636	–	–
c1 = 0.005649	–	–	0.0062
c1 = 0.005756	0.006636	–	–
c1 = 0.005898	–	0.007044	–
c1 = 0.005982	–	–	0.00612
c1 = 0.006002	–	0.00701	–
c1 = 0.006253	0.006557	–	–
c1 = 0.006281	–	–	0.00612
c1 = 0.006493	0.00653	–	–

[I-].[Na+] [sodium iodide] + CO
molar conductivity [S·m2/mol], [3]
Conditions	293.15 K	298.15 K	303.15 K
c1 = 0.0007005	0.008344	0.008814	0.0098
c1 = 0.001005	0.008236	0.008686	0.00954
c1 = 0.001541	0.00804	0.008464	0.009246
c1 = 0.001778	0.007969	0.008407	0.009148
c1 = 0.001998	–	0.008329	–
c1 = 0.002202	–	–	0.009014
c1 = 0.002391	0.00784	0.00825	0.00896
c1 = 0.002569	0.007786	0.008171	0.008907
c1 = 0.003036	0.007688	–	–
c1 = 0.003173	–	0.008019	0.00852
c1 = 0.003425	–	0.007956	0.00846
c1 = 0.003541	0.0076	–	–
c1 = 0.00365	–	0.007907	0.0084
c1 = 0.003754	0.007556	–	–
c1 = 0.004122	0.0075	–	–
c1 = 0.004203	–	0.007791	0.00825
c1 = 0.004684	0.007431	–	–
c1 = 0.004742	–	0.007697	–
c1 = 0.004852	–	–	0.00804
c1 = 0.004954	–	0.007663	–
c1 = 0.005049	–	–	0.008
c1 = 0.005094	0.007356	–	–
c1 = 0.005504	–	0.007571	–
c1 = 0.005623	–	–	0.00782
c1 = 0.005651	0.007288	–	–
c1 = 0.006031	–	0.007494	–
c1 = 0.00618	0.007194	–	–
c1 = 0.006252	–	–	0.0076
c1 = 0.006529	0.00715	–	–

N#C[S-].[Na+] [sodium thiocyanate] + CO
molar conductivity [S·m2/mol], [3]
Conditions	293.15 K	298.15 K	303.15 K
c1 = 0.0006986	0.00956	0.01035	0.01085
c1 = 0.001002	0.009407	0.010245	–
c1 = 0.001281	–	–	0.0106
c1 = 0.001537	0.009271	0.0101	0.010507
c1 = 0.001773	0.009192	0.010014	0.01045
c1 = 0.002195	–	0.009936	0.010314
c1 = 0.002385	0.008993	0.009871	0.010271
c1 = 0.002561	0.00895	0.009821	0.010214
c1 = 0.003164	0.008836	0.009707	0.01008
c1 = 0.003415	0.008784	0.009675	0.010014
c1 = 0.00364	–	0.009616	0.009979
c1 = 0.003842	0.00872	–	–
c1 = 0.004191	0.008664	0.009507	0.009864
c1 = 0.004343	0.00868	–	–
c1 = 0.004729	–	0.009414	–
c1 = 0.004838	0.008578	–	0.009735
c1 = 0.005035	0.008541	–	0.009713
c1 = 0.005489	–	0.009293	–
c1 = 0.005607	–	–	0.0096
c1 = 0.005662	0.008477	–	–
c1 = 0.005855	–	0.00925	–
c1 = 0.006014	–	0.009229	–
c1 = 0.006261	–	–	0.009493
c1 = 0.006336	0.008396	–	–
